Source: patent US20240294551A1 (AMGEN INC., priority 2022, published 2024)
pIC50: −log10 of the molar value.

Key:
[1] = test system: Phosphorylation of ERK1/2 in AsPC-1 cells; assay: Phospho-ERK1/2 MSD Assay; assay type: cell-based, human; settings: Homo sapiens, ASPC1, 2 h, read-out: 2 h p-ERK (AsPC-1 cells), IC50
Protocol: AsPC-1 (ATCC® CRL-1682™) cells were cultured in RPMI 1640 Medium (ThermoFisher Scientific 11875093) containing 10% fetal bovine serum (ThermoFisher Scientific 16000044) and 1× penicillin-streptomycin-glutamine (ThermoFisher Scientific 10378016). Sixteen hours prior to compound treatment, AsPC-1 cells were seeded in 96-well cell culture plates at a density of 25,000 cells/well and incubated at 37° C., 5% CO2. A compound dose-response titration was diluted in growth media, added to appropriate wells of a cell culture plate, and then incubated at 37° C., 5% CO2 for 2 hours. Following compound treatment, cells were washed with ice-cold Dulbecco's phosphate-buffered saline, no Ca^2+ or Mg^2+ (ThermoFisher Scientific 14190144), and then lysed in RIPA buffer (50 mM Tris-HCl pH 7.5, 1% Igepal, 0.5% sodium deoxycholate, 150 mM NaCl, and 0.5% sodium dodecyl sulfate) containing protease inhibitors (Roche 4693132001) and phosphatase inhibitors (Roche 4906837001). Phosphorylation of ERK1/2 in compound-treated lysates was assayed using Phospho-ERK1/2 Whole Cell Lysate kits (Meso Scale Discovery K151DWD) according to the manufacturer's protocol. Assay plates were read on a Meso Scale Discovery Sector Imager 6000, and data were analyzed using a 4-parameter logistic model to calculate IC50 values.

[2] = target: GDP-bound KRAS protein (aa 1-169), containing both G12D and C118A amino acid substitutions (Homo sapiens (Human), UniProt P01116, C118A/G12D); assay: KRAS G12D Coupled Nucleotide Exchange Assay; assay type: biochemical; settings: read-out: KRAS G12D Coupled Exchange IC50
Sequence of GDP-bound KRAS protein (aa 1-169), containing both G12D and C118A amino acid substitutions (P01116 other isoform, or with tags, fused parts or gaps G12D/C118A): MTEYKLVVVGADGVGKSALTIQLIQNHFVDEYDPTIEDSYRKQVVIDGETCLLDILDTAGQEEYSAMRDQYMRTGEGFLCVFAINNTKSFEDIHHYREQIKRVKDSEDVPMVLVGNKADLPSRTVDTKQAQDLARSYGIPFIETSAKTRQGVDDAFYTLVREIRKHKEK

[3] = target: His-tagged KRAS G12D protein (Homo sapiens (Human), UniProt P01116, G12D); assay: KRAS G12D TR-FRET Assay; assay type: binding; settings: read-out: KRAS G12D Binding IC50
Sequence of His-tagged KRAS G12D protein (P01116 other isoform, or with tags, fused parts or gaps G12D): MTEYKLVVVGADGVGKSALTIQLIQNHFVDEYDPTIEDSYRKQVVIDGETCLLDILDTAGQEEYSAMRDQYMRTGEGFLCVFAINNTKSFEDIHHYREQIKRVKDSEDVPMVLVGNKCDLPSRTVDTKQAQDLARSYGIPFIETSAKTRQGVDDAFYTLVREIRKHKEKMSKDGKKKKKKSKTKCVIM
Method in brief: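 His-tagged KRAS G12D (diluted to 20 nM in pH 7.4 HEPES buffer with 10 mM MgCl2 and 10 μM GDP) was preincubated with titrated compound for 30 min at room temperature. Biotinylated KRPep-2d peptide (diluted to 20 nM) was then added for 1 h, and displacement was monitored by TR-FRET.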

Structure (SMILES)	pIC50 [1]	pIC50 [2]	pIC50 [3]	IC50 [2]
O=C1COCCCc2c(Cl)cc3[nH]ncc3c2-c2ncc3c(nc(OC[C@@]45CCCN4C[C@H](F)C5)nc3c2F)N2CCC[C@H](C2)O1 [Example 37, (18R)-9-Chloro-31-fluoro-25-(((2R,7aS)-2-fluorotetrahydro-1H-pyrrolo[1,2-a]pyrrol-7a(5H)-yl)methoxy)-14,17-dioxa-5,6,22,24,26,30-hexaazahexacyclo[25.3.1.1˜18,22˜.0˜2,10˜.0˜3,7˜.0˜23,28˜]dotriaconta-1(31),2,4,7,9,23,25,27,29-nonaen-16-one bis(2,2,2-trifluoroacetate)]	7.24	8.40	8.30	–
Cc1cc2[nH]ncc2c2c1CCCCC(=O)N[C@@H]1CCCN(C1)c1nc(OC[C@@]34CCCN3C[C@H](F)C4)nc3c(F)c-2ncc13.O=C(O)C(F)(F)F [Example 48, (17R)-30-fluoro-24-(((2R,7aS)-2-fluorotetrahydro-1H-pyrrolo[1,2-a]pyrrol-7a(5H)-yl)methoxy)-9-methyl-5,6,16,21,23,25,29-heptaazahexacyclo[24.3.1.1˜17,21˜.0˜2,10˜.0˜3,7˜.0˜22,27˜]hentriaconta-1(30),2,4,7,9,22,24,26,28-nonaen-15-one 2,2,2-trifluoroacetate]	6.03	–	7.85	13 nM
Cc1cc2[nH]ncc2c2c1CCCCC(=O)N1CC3(CCCN(C3)c3nc(OC[C@@]45CCCN4C[C@H](F)C5)nc4c(F)c-2ncc34)C1 [Example 56, 32-fluoro-24-(((2R,7aS)-2-fluorotetrahydro-1H-pyrrolo[1,2-a]pyrrol-7a(5H)-yl)methoxy)-10-methyl-3,13,14,19,23,25,27-heptaazaheptacyclo[25.3.1.1~1,3~.1~18,22~.0~9,17~.0~12,16~.0~21,26~]tritriaconta-9,11,14,16,18(32),19,21,23,25-nonaen-4-one]	5.63	7.96	7.70	–
Cc1cc2[nH]ncc2c2c1CCCCC(=O)N[C@@H]1COCCN(C1)c1nc(OC[C@@]34CCCN3C[C@H](F)C4)nc3c(F)c-2ncc13 [Example 66, (26S)-32-fluoro-4-(((2R,7aS)-2-fluorotetrahydro-1H-pyrrolo[1,2-a]pyrrol-7a(5H)-yl)methoxy)-18-methyl-28-oxa-1,3,5,9,14,15,25-heptaazahexacyclo [24.4.1.1~6,10~.0~2,7~.0~11,19~.0~12,16~]dotriaconta-2,4,6,8,10(32),11,13,16,18-nonaen-24-one]	5.33	7.59	7.47	–
O=C1CCCc2c(F)ccc3cccc(c23)-c2ncc3c(nc(OC[C@@]45CCCN4C[C@H](F)C5)nc3c2F)N2CCC[C@H](C2)N1 [Example 68, (15R)-22,31-Difluoro-8-(((2R,7aS)-2-fluorotetrahydro-1H-pyrrolo[1,2-a]pyrrol-7a(5H)-yl)methoxy)-3,7,9,11,16-pentaazahexacyclo[19.7.1.1˜2,6˜.1˜11,15˜.0˜5,10˜.0˜25,29˜]hentriaconta-1(28),2(31),3,5,7,9,21,23,25(29),26-decaen-17-one 2,2,2-trifluoroacetate]	6.03	7.80	7.48	–
O=C1CCCc2c(F)ccc3cccc(c23)-c2ncc3c(nc(OC[C@@]45CCCN4C[C@H](F)C5)nc3c2F)N2CCCC[C@H](C2)N1 [Example 69, (16R)-23,32-difluoro-8-(((2R,7aS)-2-fluorotetrahydro-1H-pyrrolo[1,2-a]pyrrol-7a(5H)-yl)methoxy)-3,7,9,11,17-pentaazahexacyclo[20.7.1.1~2,6~.1~11,16~.0~5,10~.0~26,30~]dotriaconta-1(29),2(32),3,5,7,9,22,24,26(30),27-decaen-18-one]	5.94	7.70	7.52	–
CN1C(=O)CCCCc2c(Cl)cc3[nH]ncc3c2-c2cc3nc(OC[C@@]45CCCN4C[C@H](F)C5)nc(c3nn2)N2CCC[C@@H]1C2 [Example 73, (17R)-9-Chloro-24-(((2R,7aS)-2-fluorotetrahydro-1H-pyrrolo[1,2-a]pyrrol-7a(5H)-yl)methoxy)-16-methyl-5,6,16,21,23,25,28,29-octaazahexacyclo[24.3.1.1˜17,21˜.0˜2,10˜.0˜3,7˜.0˜22,27˜]hentriaconta-1(30),2,4,7,9,22,24,26,28-nonaen-15-one]	5.68	7.70	7.54	–
CN1C(=O)OCCCc2c(Cl)cc3[nH]ncc3c2-c2ncc3c(nc(OC[C@@]45CCCN4C[C@H](F)C5)nc3c2F)N2CCC[C@@H]1C2 [Example 74, (17R)-9-Chloro-30-fluoro-24-(((2R,7aS)-2-fluorotetrahydro-1H-pyrrolo[1,2-a]pyrrol-7a(5H)-yl)methoxy)-16-methyl-14-oxa-5,6,16,21,23,25,29-heptaazahexacyclo[24.3.1.1˜17,21˜.0˜2,10˜.0˜3,7˜.0˜22,27˜]hentriaconta-1(30),2,4,7,9,22,24,26,28-nonaen-15-one]	7.80	8.70	8.52	–
O=C1CC2CCCN(C2)c2nc(OC[C@@]34CCCN3C[C@H](F)C4)nc3c(F)c(ncc23)-c2cccc3cccc(c23)CCO1 (stereo partly drawn) [Example 88]	5.80	7.96	7.72	–

More lines, main results first:

pIC50 [1]	pIC50 [2]	pIC50 [3]	Structure (SMILES)	IC50 [2]
6.77	8.40	8.15	Cc1cc2[nH]ncc2c2c1CCCCC(=O)N(C)[C@@H]1CCCN(C1)c1nc(OC[C@@]34CCCN3C[C@H](F)C4)nc3c(F)c-2ncc13 [Example 50, (17R)-30-fluoro-24-(((2R,7aS)-2-fluorotetrahydro-1H-pyrrolo[1,2-a]pyrrol-7a(5H)-yl)methoxy)-9,16-dimethyl-5,6,16,21,23,25,29-heptaazahexacyclo[24.3.1.1~17,21~.0~2,10~.0~3,7~.0~22,27~]hentriaconta-1(30),2,4,7,9,22,24,26,28-nonaen-15-one]	–
6.45	8.30	8.00	Cc1cc2[nH]ncc2c2c1CCC[C@H](F)C(=O)N(C)[C@@H]1CCCN(C1)c1nc(OC[C@@]34CCCN3C[C@H](F)C4)nc3c(F)c-2ncc13 [Example 51, (14S,17R)-14,30-difluoro-24-(((2R,7aS)-2-fluorotetrahydro-1H-pyrrolo[1,2-a]pyrrol-7a(5H)-yl)methoxy)-9,16-dimethyl-5,6,16,21,23,25,29-heptaazahexacyclo[24.3.1.1~17,21~.0~2,10~.0~3,7~.0~22,27~]hentriaconta-1(30),2,4,7,9,22,24,26,28-nonaen-15-one]	–
6.39	7.92	7.72	Cc1cc2[nH]ncc2c2c1CCC[C@@H](F)C(=O)N(C)[C@@H]1CCCN(C1)c1nc(OC[C@@]34CCCN3C[C@H](F)C4)nc3c(F)c-2ncc13 [Example 52, (14R,17R)-14,30-difluoro-24-(((2R,7aS)-2-fluorotetrahydro-1H-pyrrolo[1,2-a]pyrrol-7a(5H)-yl)methoxy)-9,16-dimethyl-5,6,16,21,23,25,29-heptaazahexacyclo[24.3.1.1~17,21~.0~2,10~.0~3,7~.0~22,27~]hentriaconta-1(30),2,4,7,9,22,24,26,28-nonaen-15-one]	–
7.15	7.47	7.10	O=C1CCCCc2c(Cl)cc3[nH]ncc3c2-c2ncc3c(nc(OC[C@@]45CCCN4C[C@H](F)C5)nc3c2F)N2CC[C@@H]3CCN1[C@@H]3C2 [Example 61, (28R,32S)-18-chloro-33-fluoro-4-(((2R,7aS)-2-fluorotetrahydro-1H-pyrrolo[1,2-a]pyrrol-7a(5H)-yl)methoxy)-1,3,5,9,14,15,25-heptaazaheptacyclo[23.5.2.1~6,10~.0~2,7~.0~11,19~.0~12,16~.0~28,32~]tritriaconta-2,4,6,8,10(33),11,13,16,18-nonaen-24-one]	–
6.38	7.64	7.62	O=C1CCCCc2c(C(F)(F)F)cc3[nH]ncc3c2-c2ncc3c(nc(OC[C@@]45CCCN4C[C@H](F)C5)nc3c2F)N2CCC[C@H](C2)O1 [Example 87, (17R)-30-fluoro-24-(((2R,7aS)-2-fluorotetrahydro-1H-pyrrolo[1,2-a]pyrrol-7a(5H)-yl)methoxy)-9-(trifluoromethyl)-16-oxa-5,6,21,23,25,29-hexaazahexacyclo[24.3.1.1~17,21~.0~2,10~.0~3,7~.0~22,27~]hentriaconta-1(30),2,4,7,9,22,24,26,28-nonaen-15-one]	–
6.78	7.96	7.92	O=C1COCCc2c(Cl)cc3[nH]ncc3c2-c2ncc3c(nc(OC[C@@]45CCCN4C[C@H](F)C5)nc3c2F)N2CCC[C@H](C2)O1 [Example 90, (17R)-9-chloro-30-fluoro-24-(((2R,7aS)-2-fluorotetrahydro-1H-pyrrolo[1,2-a]pyrrol-7a(5H)-yl)methoxy)-13,16-dioxa-5,6,21,23,25,29-hexaazahexacyclo[24.3.1.1~17,21~.0~2,10~.0~3,7~.0~22,27~]hentriaconta-1(30),2,4,7,9,22,24,26,28-nonaen-15-one]	–
